Experimental data from patent US6610712B2, “Aryloxy piperidinyl derivatives for the treatment of depression” (Wyeth, priority 2000, dated 2003).
Structures can show the parent of a compound that is named as a salt.

What was measured:
5-HT1A = target: T1, 5-HT1A (Homo sapiens, UniProt P08908); assay: 5-HT1A receptor binding, [3H]DPAT; set-up: 5-HT1A [3H]DPAT, % at single concentration: dose or concentration left out as unconfirmed; details: radioligand [3H]DPAT
T1 sequence (P08908 1-422): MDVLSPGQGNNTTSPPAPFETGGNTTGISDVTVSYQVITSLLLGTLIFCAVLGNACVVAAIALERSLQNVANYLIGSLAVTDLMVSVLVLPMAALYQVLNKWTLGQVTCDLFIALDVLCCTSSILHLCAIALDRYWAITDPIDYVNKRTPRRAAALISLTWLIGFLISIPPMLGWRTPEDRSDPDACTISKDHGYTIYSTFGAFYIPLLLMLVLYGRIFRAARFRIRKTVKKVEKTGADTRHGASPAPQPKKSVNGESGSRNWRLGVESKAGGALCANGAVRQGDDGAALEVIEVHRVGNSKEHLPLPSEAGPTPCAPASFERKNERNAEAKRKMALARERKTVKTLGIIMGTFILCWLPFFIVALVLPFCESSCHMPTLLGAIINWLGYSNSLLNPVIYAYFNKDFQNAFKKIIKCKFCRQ

Serotonin Transporter = Serotonin Transporter (Homo sapiens, UniProt P31645); assay: Serotonin transporter binding, [3H]paroxetine; details: radioligand [3H]paroxetine
Serotonin Transporter, sequence (P31645 whole entry): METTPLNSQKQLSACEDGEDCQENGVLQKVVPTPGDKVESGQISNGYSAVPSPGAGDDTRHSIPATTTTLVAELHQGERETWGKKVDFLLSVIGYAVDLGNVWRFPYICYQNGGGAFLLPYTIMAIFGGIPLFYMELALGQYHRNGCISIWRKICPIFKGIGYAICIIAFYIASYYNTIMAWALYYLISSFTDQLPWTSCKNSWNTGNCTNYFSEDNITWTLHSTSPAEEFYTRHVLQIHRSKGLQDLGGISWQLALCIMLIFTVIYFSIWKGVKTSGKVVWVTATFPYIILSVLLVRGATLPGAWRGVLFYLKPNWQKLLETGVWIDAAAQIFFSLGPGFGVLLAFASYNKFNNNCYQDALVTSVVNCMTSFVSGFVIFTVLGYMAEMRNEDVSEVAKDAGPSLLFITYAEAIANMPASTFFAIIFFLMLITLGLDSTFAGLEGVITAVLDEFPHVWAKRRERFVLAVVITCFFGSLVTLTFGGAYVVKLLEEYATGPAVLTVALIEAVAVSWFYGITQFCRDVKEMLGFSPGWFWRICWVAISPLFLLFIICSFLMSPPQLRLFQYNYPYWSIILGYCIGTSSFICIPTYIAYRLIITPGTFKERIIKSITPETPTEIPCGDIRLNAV

Molecule	melting point [°C]	5-HT1A [3H]DPAT, % at single concentration (5-HT1A) [% @ 0.1 M]	Ki (5-HT1A) [nM]	Ki (Serotonin Transporter) [nM]
6-Fluoro-3-{1-[2-(2,3-dihydro-benzo[1,4]dioxan-5-yloxy)-ethyl]-1,2,3,6-tetrahydro-pyridin-4-yl}-1H-indole [Example 6]			83.7	0.15
COc1ccccc1OCCN1CCC(Cc2c[nH]c3ccc(F)cc23)CC1 (as salt: oxalate) (hydrate or solvate) [Example 1, 5-Fluoro-3-{1-[2-(2-methoxyphenoxy)ethyl]-piperidin-4-ylmethyl}-1H-indole]	91			
C1=C(c2c[nH]c3ccccc23)CCN(CCOc2cccc3c2OCCO3)C1 (as salt: oxalate) [Example 4, 3-{1-[2-(2,3-Dihydro-benzo[1,4]dioxan-5-yloxy)-ethyl]-1,2,3,6-tetrahydro-pyridin-4-yl}-1H-indole]	85 to 88			
Fc1ccc2[nH]cc(C3=CCN(CCOc4cccc5c4OCCO5)CC3)c2c1 (as salt: oxalate) [Example 5, 5-Fluoro-3-{1-[2-(2,3-dihydro-benzo[1,4]dioxan-5-yloxy)-ethyl]-1,2,3,6-tetrahydro-pyridin-4-yl}-1H-indole]	195 to 198			
COc1ccccc1OCCN1CCC(Cc2c[nH]c3ccc(F)cc23)CC1 [Example 1, 5-Fluoro-3-{1-[2-(2-methoxyphenoxy)ethyl]-piperidin-4-ylmethyl}-1H-indole]			180	0.35
Fc1ccc2[nH]cc(CC3CCN(CCOc4cccc5c4OCCO5)CC3)c2c1 [Example 2, 5-Fluoro-3-{1-[2-(2,3-dihydrobenzo[1,4]dioxin-5-yloxy)ethyl]-piperidin-4-ylmethyl}-1H-indole]			168	0.011
C1=C(c2c[nH]c3ccccc23)CCN(CCOc2cccc3c2OCCO3)C1 [Example 4, 3-{1-[2-(2,3-Dihydro-benzo[1,4]dioxan-5-yloxy)-ethyl]-1,2,3,6-tetrahydro-pyridin-4-yl}-1H-indole]			78.3	0.17
Fc1ccc2[nH]cc(C3=CCN(CCOc4cccc5c4OCCO5)CC3)c2c1 [Example 5, 5-Fluoro-3-{1-[2-(2,3-dihydro-benzo[1,4]dioxan-5-yloxy)-ethyl]-1,2,3,6-tetrahydro-pyridin-4-yl}-1H-indole]			83.3	1.17

More lines, main results first:

melting point [°C]	5-HT1A [3H]DPAT, % at single concentration (5-HT1A) [% @ 0.1 M]	Molecule	Ki (5-HT1A) [nM]	Ki (Serotonin Transporter) [nM]
157 to 159		Fc1ccc2[nH]cc(CC3CCN(CCOc4cccc5c4OCCO5)CC3)c2c1 (as salt: fumarate) (hydrate or solvate) [Example 2, 5-Fluoro-3-{1-[2-(2,3-dihydrobenzo[1,4]dioxin-5-yloxy)ethyl]-piperidin-4-ylmethyl}-1H-indole]		
150 to 152		Fc1ccc2[nH]cc(CC3CCN(CCOc4ccc5c(c4)CCC5)CC3)c2c1 (as salt: hydrochloride) (hydrate or solvate) [Example 3, 5-Fluoro-3-{1-[2-(indan-5-yloxy)-ethyl]-piperidin-4-ylmethyl}-1H-indole]		
	0	Fc1ccc2[nH]cc(CC3CCN(CCOc4ccc5c(c4)CCC5)CC3)c2c1 [Example 3, 5-Fluoro-3-{1-[2-(indan-5-yloxy)-ethyl]-piperidin-4-ylmethyl}-1H-indole]		2.24
